Measurements as given in patent US20020026053A1, “Novel 3-(substituted) -2- indolinones compounds and use thereof as inhibitors of protein kinase activity” (priority 1997, published 2002).

Molecular target: T1, Met receptor (EGFR/Met chimeric cells, EMR) (Homo sapiens, UniProt P08581)
T1 construct: expressed in transfected cells; the other entry of the earlier key: EGFR (P00533, Epidermal growth factor receptor)
Assay: Met Autophosphorylation Assay
Format: biochemical
Settings: protocol P.130
In short: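 Transiently transfected EGFR/Met chimeric (EMR) cells were lysed in HNTG with 1 mM PMSF. Met was captured on plates coated with goat anti-rabbit IgG, then rabbit anti-Met (C-28), using 90 μg lysate/100 μl for 60 min at room temperature. Phosphotyrosine was read by ELISA.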

T1 sequence (P08581 with tags, fused parts or gaps): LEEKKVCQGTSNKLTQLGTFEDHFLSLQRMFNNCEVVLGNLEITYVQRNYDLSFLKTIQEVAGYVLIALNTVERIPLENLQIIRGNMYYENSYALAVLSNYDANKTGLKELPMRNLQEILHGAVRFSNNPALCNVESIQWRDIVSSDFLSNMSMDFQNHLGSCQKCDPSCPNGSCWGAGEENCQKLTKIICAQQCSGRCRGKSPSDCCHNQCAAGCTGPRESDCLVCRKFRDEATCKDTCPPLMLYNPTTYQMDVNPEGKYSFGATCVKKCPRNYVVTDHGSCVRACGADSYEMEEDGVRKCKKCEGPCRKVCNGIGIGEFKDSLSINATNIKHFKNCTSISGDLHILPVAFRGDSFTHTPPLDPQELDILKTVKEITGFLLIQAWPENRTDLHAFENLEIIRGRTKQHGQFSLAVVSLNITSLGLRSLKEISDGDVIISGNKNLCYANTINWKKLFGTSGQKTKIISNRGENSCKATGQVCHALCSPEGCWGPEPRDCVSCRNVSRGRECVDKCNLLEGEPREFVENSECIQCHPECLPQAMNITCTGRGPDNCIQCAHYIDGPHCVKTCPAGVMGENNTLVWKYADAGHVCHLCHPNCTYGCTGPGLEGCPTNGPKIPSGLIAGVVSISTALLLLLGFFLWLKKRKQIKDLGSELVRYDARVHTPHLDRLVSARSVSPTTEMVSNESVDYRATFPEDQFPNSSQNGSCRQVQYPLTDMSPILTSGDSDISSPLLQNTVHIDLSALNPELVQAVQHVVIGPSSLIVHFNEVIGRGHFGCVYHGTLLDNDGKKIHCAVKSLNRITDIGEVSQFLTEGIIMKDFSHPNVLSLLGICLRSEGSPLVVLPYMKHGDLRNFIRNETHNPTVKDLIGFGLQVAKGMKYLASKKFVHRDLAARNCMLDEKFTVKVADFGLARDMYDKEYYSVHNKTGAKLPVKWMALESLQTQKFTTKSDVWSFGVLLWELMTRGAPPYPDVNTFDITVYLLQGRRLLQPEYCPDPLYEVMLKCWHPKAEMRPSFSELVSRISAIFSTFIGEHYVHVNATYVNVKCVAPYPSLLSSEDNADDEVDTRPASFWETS

| SMILES | Met Kinase % Inhibition (P.130) [%] |
| --- | --- |
| Cc1c(Br)cc(Br)c2c1C(=Cc1cc(O)cc(O)c1)C(=O)N2 [10738/H07] | 77.2 |
| Cc1c(Br)cc(Br)c2c1C(=Cc1ccc(Cl)c(Cl)c1)C(=O)N2 [10738/H08] | 20.7 |
| COc1ccccc1C=C1C(=O)Nc2c(Br)cc(Br)c(C)c21 [10738/H09] | 52.3 |
| Cc1c(Br)cc(Br)c2c1C(=Cc1ccc(C(C)C)cc1)C(=O)N2 [10738/H10] | 27.7 |
| CCCOc1ccc(C=C2C(=O)Nc3c(Br)cc(Br)c(C)c32)cc1 [10738/H11] | 24.9 |
| COc1ccc(C=C2C(=O)Nc3c(Br)cc(Br)cc32)cc1C [10739/A02] | 41.8 |
| O=C1Nc2c(Br)cc(Br)cc2C1=Cc1cccc(OCc2ccccc2)c1 [10739/A03] | 37.4 |
| O=C1Nc2c(Br)cc(Br)cc2C1=Cc1ccc(OCc2ccccc2)cc1 [10739/A04] | 45.2 |
| O=C1Nc2c(Br)cc(Br)cc2C1=CC1COc2ccccc2O1 (stereo not drawn) [10739/A05] | 36.5 |
| O=C1Nc2c(Br)cc(Br)cc2C1=Cc1ccc(O)cc1Cl [10739/A06] | 70.1 |
| O=C1Nc2c(Br)cc(Br)cc2C1=Cc1cc(O)c(O)c(O)c1 [10739/A07] | 99.9 |
| COc1ccc(Oc2cccc(C=C3C(=O)Nc4c(Br)cc(Br)cc43)c2)cc1 [10739/A08] | 39.9 |
| CN(C)CCCOc1ccc(C=C2C(=O)Nc3c(Br)cc(Br)cc32)cc1 [10739/A09] | 60.4 |
| O=C1Nc2c(Br)cc(Br)cc2C1=Cc1ccoc1 [10739/A10] | 81.2 |
| O=C1Nc2c(Br)cc(Br)cc2C1=Cc1ccc(CO)o1 [10739/A11] | 82.8 |
| COc1ccc(C=C2C(=O)Nc3ccc(I)cc32)cc1C [10739/B02] | 68.1 |
| O=C1Nc2ccc(I)cc2C1=Cc1cccc(OCc2ccccc2)c1 [10739/B03] | 62.4 |
| O=C1Nc2ccc(I)cc2C1=Cc1ccc(OCc2ccccc2)cc1 [10739/B04] | 65.1 |
| O=C1Nc2ccc(I)cc2C1=CC1COc2ccccc2O1 (stereo not drawn) [10739/B05] | 74.0 |

| SMILES | Met Kinase % Inhibition (P.130) [%] |
| --- | --- |
| O=C1Nc2ccc(I)cc2C1=Cc1ccc(O)cc1Cl [10739/B06] | 68.1 |
| O=C1Nc2ccc(I)cc2C1=Cc1cc(O)c(O)c(O)c1 [10739/B07] | 98.7 |
| COc1ccc(Oc2cccc(C=C3C(=O)Nc4ccc(I)cc43)c2)cc1 [10739/B08] | 65.8 |
| CN(C)CCCOc1ccc(C=C2C(=O)Nc3ccc(I)cc32)cc1 [10739/B09] | 63.5 |
| O=C1Nc2ccc(I)cc2C1=Cc1ccoc1 [10739/B10] | 70.6 |
| O=C1Nc2ccc(I)cc2C1=Cc1ccc(CO)o1 [10739/B11] | 84.9 |
| COc1ccc(C=C2C(=O)Nc3ccc(Br)c(C)c32)cc1C [10739/C02] | 34.7 |
| Cc1c(Br)ccc2c1C(=Cc1cccc(OCc3ccccc3)c1)C(=O)N2 [10739/C03] | 10.9 |
| Cc1c(Br)ccc2c1C(=Cc1ccc(OCc3ccccc3)cc1)C(=O)N2 [10739/C04] | −3.6 |
| Cc1c(Br)ccc2c1C(=CC1COc3ccccc3O1)C(=O)N2 (stereo not drawn) [10739/C05] | 34.7 |
| Cc1c(Br)ccc2c1C(=Cc1ccc(O)cc1Cl)C(=O)N2 [10739/C06] | 56.1 |
| Cc1c(Br)ccc2c1C(=Cc1cc(O)c(O)c(O)c1)C(=O)N2 [10739/C07] | 93.0 |
| COc1ccc(Oc2cccc(C=C3C(=O)Nc4ccc(Br)c(C)c43)c2)cc1 [10739/C08] | 9.1 |
| Cc1c(Br)ccc2c1C(=Cc1ccc(OCCCN(C)C)cc1)C(=O)N2 [10739/C09] | 76.3 |
| Cc1c(Br)ccc2c1C(=Cc1ccoc1)C(=O)N2 [10739/C10] | 66.3 |
| Cc1c(Br)ccc2c1C(=Cc1ccc(CO)o1)C(=O)N2 [10739/C11] | 61.0 |
| CNS(=O)(=O)c1ccc2c(c1)C(=Cc1ccc(OC)c(C)c1)C(=O)N2 [10739/D02] | 29.0 |
| CNS(=O)(=O)c1ccc2c(c1)C(=Cc1cccc(OCc3ccccc3)c1)C(=O)N2 [10739/D03] | 15.9 |
| CNS(=O)(=O)c1ccc2c(c1)C(=Cc1ccc(OCc3ccccc3)cc1)C(=O)N2 [10739/D04] | 11.1 |

| SMILES | Met Kinase % Inhibition (P.130) [%] |
| --- | --- |
| CNS(=O)(=O)c1ccc2c(c1)C(=CC1COc3ccccc3O1)C(=O)N2 (stereo not drawn) [10739/D05] | 30.0 |
| CNS(=O)(=O)c1ccc2c(c1)C(=Cc1ccc(O)cc1Cl)C(=O)N2 [10739/D06] | 59.2 |
| CNS(=O)(=O)c1ccc2c(c1)C(=Cc1cc(O)c(O)c(O)c1)C(=O)N2 [10739/D07] | 86.0 |
| CNS(=O)(=O)c1ccc2c(c1)C(=Cc1cccc(Oc3ccc(OC)cc3)c1)C(=O)N2 [10739/D08] | 5.2 |
| CNS(=O)(=O)c1ccc2c(c1)C(=Cc1ccc(OCCCN(C)C)cc1)C(=O)N2 [10739/D09] | 66.7 |
| COc1ccc(C=C2C(=O)Nc3ccc(S(=O)(=O)Nc4ccc(C(F)(F)F)cc4)cc32)cc1C [10739/E02] | 30.0 |
| O=C1Nc2ccc(S(=O)(=O)Nc3ccc(C(F)(F)F)cc3)cc2C1=Cc1cccc(OCc2ccccc2)c1 [10739/E03] | −3.4 |
| O=C1Nc2ccc(S(=O)(=O)Nc3ccc(C(F)(F)F)cc3)cc2C1=Cc1ccc(OCc2ccccc2)cc1 [10739/E04] | −15.2 |
| O=C1Nc2ccc(S(=O)(=O)Nc3ccc(C(F)(F)F)cc3)cc2C1=CC1COc2ccccc2O1 (stereo not drawn) [10739/E05] | 8.9 |
| O=C1Nc2ccc(S(=O)(=O)Nc3ccc(C(F)(F)F)cc3)cc2C1=Cc1ccc(O)cc1Cl [10739/E06] | 66.3 |
| O=C1Nc2ccc(S(=O)(=O)Nc3ccc(C(F)(F)F)cc3)cc2C1=Cc1cc(O)c(O)c(O)c1 [10739/E07] | 94.0 |
| COc1ccc(Oc2cccc(C=C3C(=O)Nc4ccc(S(=O)(=O)Nc5ccc(C(F)(F)F)cc5)cc43)c2)cc1 [10739/E08] | 16.1 |
| CN(C)CCCOc1ccc(C=C2C(=O)Nc3ccc(S(=O)(=O)Nc4ccc(C(F)(F)F)cc4)cc32)cc1 [10739/E09] | 33.8 |
| O=C1Nc2ccc(S(=O)(=O)Nc3ccc(C(F)(F)F)cc3)cc2C1=Cc1ccoc1 [10739/E10] | 71.9 |
| O=C1Nc2ccc(S(=O)(=O)Nc3ccc(C(F)(F)F)cc3)cc2C1=Cc1ccc(CO)o1 [10739/E11] | 76.9 |
| COc1ccc(C=C2C(=O)Nc3ccc(S(=O)(=O)N4CCOCC4)cc32)cc1C [10739/F02] | 50.8 |
| O=C1Nc2ccc(S(=O)(=O)N3CCOCC3)cc2C1=Cc1cccc(OCc2ccccc2)c1 [10739/F03] | 38.8 |
| O=C1Nc2ccc(S(=O)(=O)N3CCOCC3)cc2C1=Cc1ccc(OCc2ccccc2)cc1 [10739/F04] | 30.4 |
| O=C1Nc2ccc(S(=O)(=O)N3CCOCC3)cc2C1=CC1COc2ccccc2O1 (stereo not drawn) [10739/F05] | −5.4 |
